Source: US8048873B2, “Synergistic pharmaceutical combination for the prevention or treatment of diabetes” (N-Gene Research Laboratories, Inc., priority 2001, dated 2011)

System: New Zealand white rabbits
Assay: Hyperinsulinaemic euglycaemic glucose clamp studies (insulin sensitivity by glucose infusion rate at steady state)
Assay type: in vivo, rabbit
Details: measured on 6th day
Experimental: Adult male New Zealand white rabbits weighing 3-3.2 kg, housed in an animal room (12-hour light/dark periods a day, temperature of 22-25° C., relative humidity of 50-70%) with one animal per pen, fed commercial laboratory chow and tap water ad libitum, were used throughout. The animals underwent surgery after a two-week adaptation period.
Surgery was performed under aseptic conditions. The rabbits were anaesthetized with an intravenous bolus of 10 mg/kg diazepam (Sigma, St. Louis, Mo., USA) and 5 mg/kg ketamine (EGIS Pharmaceuticals Ltd., Budapest, Hungary). […] Polyethylene catheters were inserted into two major branches of the jugular vein and the left carotid artery. The catheters were exteriorised through the back of the neck. These lines were kept patent by filling with sodium heparin solution (100 IU/ml).
Hyperinsulinaemic Euglycaemic Glucose Clamp Studies
Blood samples (0.3 ml) were taken from the arterial cannula for blood glucose concentration at 10 min intervals. […] When blood glucose had stabilized for at least 30 min, we defined this condition as steady state. In the steady state, additional blood samples (0.5 ml) were taken for plasma insulin determination at 10-min intervals. The glucose infusion rate (mg/kg/min) during steady state was used to characterize insulin sensitivity [DeFronzo R. A. et al., Am. […] The test compound(s) was/were administered to healthy and hypercholesterolaemic animals, respectively, perorally, in a single dose, daily, for five days, and the glucose infusion rates determined on the 6th day were averaged within each test group consisting of 6 animals. One group of the healthy and one of the hypercholesterolaemic animals was used as the control.
It is favourable that a higher amount of glucose should be needed at the given constant blood glucose level which indicates the enhanced effect of insulin.

Row | SMILES | Insulin sensitivity as characterized by the glucose infusion rate during steady state (Table 1, HC (hypercholesterolaemic) animals, metformin 100 mg/kg daily dose p.o. for five days) | Insulin sensitivity as characterized by the glucose infusion rate during steady state (Table 1, normal (healthy) animals, metformin 100 mg/kg daily dose p.o. for five days) | Insulin sensitivity as characterized by the glucose infusion rate during steady state (Table 2, HC (hypercholesterolaemic) animals, troglitazone 75 mg/kg daily dose p.o. for five days) | Insulin sensitivity as characterized by the glucose infusion rate during steady state (Table 2, normal (healthy) animals, troglitazone 75 mg/kg daily dose p.o. for five days)
1 | CN(C)C(=N)N=C(N)N [Metformin, N,N-dimethylimidocarbonimidic diamide] | 11.7 ± 0.87 mg/kg/min | 15.8 ± 0.83 mg/kg/min | – | –
2 | Cc1c(C)c2c(c(C)c1O)CCC(C)(COc1ccc(CC3SC(=O)NC3=O)cc1)O2 (racemic) [Troglitazone, (±)-5-[[4-[(3,4-dihydro-6-hydroxy-2,5,7,8-tetramethyl-2H-1-benzopyran-2-yl)methoxy]-phenyl]methyl]-2,4-thiazolidinedione] | – | – | 14.1 ± 1.33 mg/kg/min | 14.3 ± 0.08 mg/kg/min
